In PubChem BioAssay (NCI):
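Exposure lasted 48 hours, with cells grown in 96-well plates and compounds tested at five concentrations. Here, GI50 denotes the concentration required for 50% inhibition of growth. The concentration for full growth arrest is given as TGI.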

What was measured:
Test in all cases: DTP human tumour cell line panel, 48 h
HL-60(TB) leukemia = test system: HL-60(TB) leukemia
SK-MEL-28 melanoma = test system: SK-MEL-28 melanoma
SN12C renal = test system: SN12C renal
A549 NSCLC = test system: A549 NSCLC
HS 578T breast = test system: HS 578T breast
OVCAR-5 ovarian = test system: OVCAR-5 ovarian
BT-549 breast = test system: BT-549 breast
A498 renal = test system: A498 renal
ACHN renal = test system: ACHN renal
UACC-62 melanoma = test system: UACC-62 melanoma
EKVX NSCLC = test system: EKVX NSCLC
DU-145 prostate = test system: DU-145 prostate
HCT-116 colon = test system: HCT-116 colon
UACC-257 melanoma = test system: UACC-257 melanoma
SR leukemia = test system: SR leukemia
SF-295 CNS = test system: SF-295 CNS
SNB-75 CNS = test system: SNB-75 CNS
K-562 leukemia = test system: K-562 leukemia
HCC-2998 colon = test system: HCC-2998 colon
U251 CNS = test system: U251 CNS
RPMI-8226 leukemia = test system: RPMI-8226 leukemia
COLO 205 colon = test system: COLO 205 colon
HOP-92 NSCLC = test system: HOP-92 NSCLC
TK-10 renal = test system: TK-10 renal
IGROV1 ovarian = test system: IGROV1 ovarian
786-0 renal = test system: 786-0 renal
HCT-15 colon = test system: HCT-15 colon
SK-MEL-5 melanoma = test system: SK-MEL-5 melanoma
NCI-H522 lung = test system: NCI-H522 lung
SF-539 CNS = test system: SF-539 CNS
OVCAR-4 ovarian = test system: OVCAR-4 ovarian
SW-620 colon = test system: SW-620 colon
SK-MEL-2 melanoma = test system: SK-MEL-2 melanoma
T-47D breast = test system: T-47D breast
NCI-H226 lung = test system: NCI-H226 lung
CAKI-1 renal = test system: CAKI-1 renal
OVCAR-8 ovarian = test system: OVCAR-8 ovarian
SF-268 CNS = test system: SF-268 CNS
OVCAR-3 ovarian = test system: OVCAR-3 ovarian
MOLT-4 leukemia = test system: MOLT-4 leukemia
HT29 colon = test system: HT29 colon
MDA-MB-435 = test system: MDA-MB-435
MCF7 breast = test system: MCF7 breast
NCI-H460 lung = test system: NCI-H460 lung
PC-3 prostate = test system: PC-3 prostate
HOP-62 NSCLC = test system: HOP-62 NSCLC
NCI/ADR-RES ovarian = test system: NCI/ADR-RES ovarian
MDA-MB-231 breast = test system: MDA-MB-231 breast
LOX IMVI melanoma = test system: LOX IMVI melanoma
UO-31 renal = test system: UO-31 renal
SNB-19 CNS = test system: SNB-19 CNS
CCRF-CEM leukemia = test system: CCRF-CEM leukemia
NCI-H23 lung = test system: NCI-H23 lung
SK-OV-3 ovarian = test system: SK-OV-3 ovarian
M14 melanoma = test system: M14 melanoma
KM12 colon = test system: KM12 colon

CCN1C(=O)N(CC)C2SC(N/N=C/c3ccccc3F)=NC21 (stereo not given)
GI50 (HL-60(TB) leukemia): 199 nM
TGI (HL-60(TB) leukemia): 633 nM
GI50 (SK-MEL-28 melanoma): 5620 nM
TGI (SK-MEL-28 melanoma): > 100000 nM
GI50 (SN12C renal): 567 nM
TGI (SN12C renal): > 100000 nM
GI50 (A549 NSCLC): 526 nM
TGI (A549 NSCLC): > 100000 nM
GI50 (HS 578T breast): 299 nM
TGI (HS 578T breast): > 100000 nM
GI50 (OVCAR-5 ovarian): 517 nM
TGI (OVCAR-5 ovarian): > 100000 nM
GI50 (BT-549 breast): 298 nM
TGI (BT-549 breast): 1590 nM
GI50 (A498 renal): 204 nM
TGI (A498 renal): 836 nM
GI50 (ACHN renal): 864 nM
TGI (ACHN renal): > 100000 nM
GI50 (UACC-62 melanoma): 295 nM
TGI (UACC-62 melanoma): > 100000 nM
GI50 (EKVX NSCLC): 570 nM
TGI (EKVX NSCLC): > 100000 nM
GI50 (DU-145 prostate): 462 nM
TGI (DU-145 prostate): > 100000 nM
GI50 (HCT-116 colon): 369 nM
TGI (HCT-116 colon): > 100000 nM
GI50 (UACC-257 melanoma): 2170 nM
TGI (UACC-257 melanoma): > 64400 nM
GI50 (SR leukemia): 165 nM
TGI (SR leukemia): > 100000 nM
GI50 (SF-295 CNS): 293 nM
TGI (SF-295 CNS): > 100000 nM
GI50 (SNB-75 CNS): 207 nM
TGI (SNB-75 CNS): > 73000 nM
GI50 (K-562 leukemia): 194 nM
TGI (K-562 leukemia): > 100000 nM
GI50 (HCC-2998 colon): 414 nM
TGI (HCC-2998 colon): 27000 nM
GI50 (U251 CNS): 342 nM
TGI (U251 CNS): > 39200 nM
GI50 (RPMI-8226 leukemia): 355 nM
TGI (RPMI-8226 leukemia): > 100000 nM
GI50 (COLO 205 colon): 298 nM
TGI (COLO 205 colon): 1480 nM
GI50 (HOP-92 NSCLC): 1280 nM
TGI (HOP-92 NSCLC): > 25800 nM
TGI (TK-10 renal): > 100000 nM
GI50 (IGROV1 ovarian): 599 nM
TGI (IGROV1 ovarian): > 100000 nM
GI50 (786-0 renal): 657 nM
TGI (786-0 renal): > 86100 nM
GI50 (HCT-15 colon): 344 nM
TGI (HCT-15 colon): > 100000 nM
GI50 (SK-MEL-5 melanoma): 603 nM
TGI (SK-MEL-5 melanoma): 20700 nM
GI50 (NCI-H522 lung): 172 nM
TGI (NCI-H522 lung): 527 nM
GI50 (SF-539 CNS): 238 nM
TGI (SF-539 CNS): 772 nM
GI50 (OVCAR-4 ovarian): > 58300 nM
TGI (OVCAR-4 ovarian): > 100000 nM
GI50 (SW-620 colon): 372 nM
TGI (SW-620 colon): > 100000 nM
GI50 (SK-MEL-2 melanoma): 326 nM
TGI (SK-MEL-2 melanoma): > 100000 nM
GI50 (T-47D breast): 557 nM
TGI (T-47D breast): > 100000 nM
GI50 (NCI-H226 lung): 1960 nM
TGI (NCI-H226 lung): > 100000 nM
GI50 (CAKI-1 renal): 353 nM
TGI (CAKI-1 renal): > 100000 nM
GI50 (OVCAR-8 ovarian): 425 nM
GI50 (SF-268 CNS): 4170 nM
TGI (SF-268 CNS): > 100000 nM
GI50 (OVCAR-3 ovarian): 330 nM
TGI (OVCAR-3 ovarian): > 100000 nM
GI50 (MOLT-4 leukemia): 507 nM
TGI (MOLT-4 leukemia): > 100000 nM
GI50 (HT29 colon): 323 nM
TGI (HT29 colon): > 100000 nM
GI50 (MDA-MB-435): 75.1 nM
TGI (MDA-MB-435): 274 nM
GI50 (MCF7 breast): 267 nM
TGI (MCF7 breast): > 100000 nM
GI50 (NCI-H460 lung): 353 nM
TGI (NCI-H460 lung): > 100000 nM
GI50 (PC-3 prostate): 347 nM
TGI (PC-3 prostate): > 100000 nM
GI50 (HOP-62 NSCLC): 474 nM
TGI (HOP-62 NSCLC): > 100000 nM
GI50 (NCI/ADR-RES ovarian): 312 nM
TGI (NCI/ADR-RES ovarian): > 65900 nM
GI50 (MDA-MB-231 breast): 635 nM
TGI (MDA-MB-231 breast): > 100000 nM
GI50 (LOX IMVI melanoma): 556 nM
TGI (LOX IMVI melanoma): > 100000 nM
GI50 (UO-31 renal): 643 nM
TGI (UO-31 renal): > 100000 nM
GI50 (SNB-19 CNS): 430 nM
TGI (SNB-19 CNS): > 100000 nM
GI50 (CCRF-CEM leukemia): 364 nM
TGI (CCRF-CEM leukemia): > 100000 nM
GI50 (NCI-H23 lung): 467 nM
TGI (NCI-H23 lung): > 100000 nM
GI50 (SK-OV-3 ovarian): 569 nM
TGI (SK-OV-3 ovarian): > 100000 nM
GI50 (M14 melanoma): 206 nM
TGI (M14 melanoma): 610 nM
GI50 (KM12 colon): 383 nM
TGI (KM12 colon): > 54800 nM
